Data from the supplement of paper PMC10307832.

Legend:
Experiment in all cases: relative viability (nuclei count vs DMSO), 5 days (fraction); higher = more cells survive
NCI-H2087 = test system: NCI-H2087
Outline: (§1)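 Dosing by pin tool came one day after lung cancer cell lines were seeded in 1536-well plates, using either one drug or a fixed anchor-drug dose plus five library-drug doses (not always all listed) in √10 steps. After 5 days, nuclei were counted on 4× images. Relative viability is treated-well nuclei count divided by vehicle-well nuclei count, and values are medians of duplicate plates.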

LXF-289 = test system: LXF-289
Outline: as §1

NCI-H1651 = test system: NCI-H1651
Outline: as §1

COR-L23 = test system: COR-L23
Outline: as §1

HCC-44 = test system: HCC-44
Outline: as §1

LU99A = test system: LU99A
Outline: as §1

NCI-H1792 = test system: NCI-H1792
Outline: as §1

NCI-H1563 = test system: NCI-H1563
Outline: as §1

NCI-H1355 = test system: NCI-H1355
Outline: as §1

CAL-12T = test system: CAL-12T
Outline: as §1

BEN = test system: BEN
Outline: as §1

NCI-H460 = test system: NCI-H460
Outline: as §1

PC-14 = test system: PC-14
Outline: as §1

NCI-H1755 = test system: NCI-H1755
Outline: as §1

NCI-H1993 = test system: NCI-H1993
Outline: as §1

NCI-H1666 = test system: NCI-H1666
Outline: as §1

SK-MES-1 = test system: SK-MES-1
Outline: as §1

NCI-H520 = test system: NCI-H520
Outline: as §1

NCI-H2085 = test system: NCI-H2085
Outline: as §1

NCI-H1437 = test system: NCI-H1437
Outline: as §1

Cc1csc(=NC2CCCCC2)n1/N=C/c1ccc(O)c(O)c1O [MIM1] + C[C@]1(O)C[C@@H](c2nc(-c3ccc4ccc(-c5ccccc5)nc4c3)c3c(N)nccn32)C1 [Linsitinib] (partner 1 µM)
relative viability (NCI-H2087; first compound 0.2 µM): 0.935 | relative viability (NCI-H2087; first compound 0.6325 µM): 0.833 | relative viability (NCI-H2087; first compound 2 µM): 0.989 | relative viability (NCI-H2087; first compound 6.325 µM): 0.693 | relative viability (NCI-H2087; first compound 20 µM): 0.428 | relative viability (LXF-289; first compound 0.2 µM): 0.943 | relative viability (LXF-289; first compound 0.6325 µM): 0.923 | relative viability (LXF-289; first compound 2 µM): 0.943 | relative viability (LXF-289; first compound 6.325 µM): 0.787 | relative viability (LXF-289; first compound 20 µM): 0.624 | relative viability (NCI-H1651; first compound 0.2 µM): 0.925 | relative viability (NCI-H1651; first compound 0.6325 µM): 0.993 | relative viability (NCI-H1651; first compound 2 µM): 1 | relative viability (NCI-H1651; first compound 6.325 µM): 0.825 | relative viability (NCI-H1651; first compound 20 µM): 0.797 | relative viability (COR-L23; first compound 0.2 µM): 0.77 | relative viability (COR-L23; first compound 0.6325 µM): 1.12 | relative viability (COR-L23; first compound 2 µM): 1.01 | relative viability (COR-L23; first compound 6.325 µM): 0.813 | relative viability (COR-L23; first compound 20 µM): 0.498 | relative viability (HCC-44; first compound 0.2 µM): 0.67 | relative viability (HCC-44; first compound 0.6325 µM): 0.713 | relative viability (HCC-44; first compound 2 µM): 0.555 | relative viability (HCC-44; first compound 6.325 µM): 0.555 | relative viability (HCC-44; first compound 20 µM): 0.141 | relative viability (LU99A; first compound 0.2 µM): 0.528 | relative viability (LU99A; first compound 0.6325 µM): 0.57 | relative viability (LU99A; first compound 2 µM): 0.489 | relative viability (LU99A; first compound 6.325 µM): 0.545 | relative viability (LU99A; first compound 20 µM): 0.284 | relative viability (NCI-H1792; first compound 0.2 µM): 0.551 | relative viability (NCI-H1792; first compound 0.6325 µM): 0.438 | relative viability (NCI-H1792; first compound 2 µM): 0.481 | relative viability (NCI-H1792; first compound 6.325 µM): 0.383 | relative viability (NCI-H1792; first compound 20 µM): 0.503 | relative viability (NCI-H1563; first compound 0.2 µM): 1.13 | relative viability (NCI-H1563; first compound 0.6325 µM): 1.29 | relative viability (NCI-H1563; first compound 2 µM): 1.1 | relative viability (NCI-H1563; first compound 6.325 µM): 0.977 | relative viability (NCI-H1563; first compound 20 µM): 0.957 | relative viability (NCI-H1355; first compound 0.2 µM): 0.812 | relative viability (NCI-H1355; first compound 0.6325 µM): 0.882 | relative viability (NCI-H1355; first compound 2 µM): 0.898 | relative viability (NCI-H1355; first compound 6.325 µM): 0.74 | relative viability (NCI-H1355; first compound 20 µM): 0.879 | relative viability (CAL-12T; first compound 0.2 µM): 0.803 | relative viability (CAL-12T; first compound 0.6325 µM): 0.677 | relative viability (CAL-12T; first compound 2 µM): 0.695 | relative viability (CAL-12T; first compound 6.325 µM): 0.634 | relative viability (CAL-12T; first compound 20 µM): 0.225 | relative viability (BEN; first compound 0.2 µM): 0.888 | relative viability (BEN; first compound 0.6325 µM): 0.877 | relative viability (BEN; first compound 2 µM): 0.981 | relative viability (BEN; first compound 6.325 µM): 0.826 | relative viability (BEN; first compound 20 µM): 0.42 | relative viability (NCI-H460; first compound 0.2 µM): 0.791 | relative viability (NCI-H460; first compound 0.6325 µM): 0.783 | relative viability (NCI-H460; first compound 2 µM): 0.582 | relative viability (NCI-H460; first compound 6.325 µM): 0.287 | relative viability (NCI-H460; first compound 20 µM): 0.022 | relative viability (PC-14; first compound 0.2 µM): 0.893 | relative viability (PC-14; first compound 0.6325 µM): 0.932 | relative viability (PC-14; first compound 2 µM): 0.956 | relative viability (PC-14; first compound 6.325 µM): 0.719 | relative viability (PC-14; first compound 20 µM): 0.499 | relative viability (NCI-H1755; first compound 0.2 µM): 1.02 | relative viability (NCI-H1755; first compound 0.6325 µM): 0.996 | relative viability (NCI-H1755; first compound 2 µM): 1.03 | relative viability (NCI-H1755; first compound 6.325 µM): 0.71 | relative viability (NCI-H1755; first compound 20 µM): 0.724 | relative viability (NCI-H1993; first compound 0.2 µM): 0.736 | relative viability (NCI-H1993; first compound 0.6325 µM): 0.715 | relative viability (NCI-H1993; first compound 2 µM): 0.63 | relative viability (NCI-H1993; first compound 6.325 µM): 0.68 | relative viability (NCI-H1993; first compound 20 µM): 0.646 | relative viability (NCI-H1666; first compound 0.2 µM): 0.791 | relative viability (NCI-H1666; first compound 0.6325 µM): 0.753 | relative viability (NCI-H1666; first compound 2 µM): 0.732 | relative viability (NCI-H1666; first compound 6.325 µM): 0.606 | relative viability (NCI-H1666; first compound 20 µM): 0.526 | relative viability (SK-MES-1; first compound 0.2 µM): 0.988 | relative viability (SK-MES-1; first compound 0.6325 µM): 0.988 | relative viability (SK-MES-1; first compound 2 µM): 1.02 | relative viability (SK-MES-1; first compound 6.325 µM): 0.853 | relative viability (SK-MES-1; first compound 20 µM): 0.848 | relative viability (NCI-H520; first compound 0.2 µM): 0.983 | relative viability (NCI-H520; first compound 0.6325 µM): 1.1 | relative viability (NCI-H520; first compound 2 µM): 0.921 | relative viability (NCI-H520; first compound 6.325 µM): 0.64 | relative viability (NCI-H520; first compound 20 µM): 0.5 | relative viability (NCI-H2085; first compound 0.2 µM): 1.04 | relative viability (NCI-H2085; first compound 0.6325 µM): 0.912 | relative viability (NCI-H2085; first compound 2 µM): 0.971 | relative viability (NCI-H2085; first compound 6.325 µM): 0.815 | relative viability (NCI-H2085; first compound 20 µM): 0.934 | relative viability (NCI-H1437; first compound 0.2 µM): 0.967 | relative viability (NCI-H1437; first compound 0.6325 µM): 0.985 | relative viability (NCI-H1437; first compound 2 µM): 1.05 | relative viability (NCI-H1437; first compound 6.325 µM): 0.507 | relative viability (NCI-H1437; first compound 20 µM): 0.151
